In patent publication US7071206B2, “Agents for treating neurodegenerative disorders” (Medivation, Inc., priority 1995, dated 2006):
Values joined by “and” are separate entries in the source; they are usually repeats but may differ in a detail not shown here. Equal values may be shown once.

System: patients suffering from Alzheimer's disease
Assay: Clinical trial of dimebon tablets, inventors' scale (E. E. Bukatina et al.; 0 = absence of a symptom, 4 = greatest manifestation)
Format: in vivo, human
Conditions: for Degree of irritability, M +/− m: mean of 7 patients having this symptom; for Values of cognitive functions, M +/− m: mean of 7 patients with unprofound dementia; for Marked depressive manifestation, M +/− m: mean of 8 patients with evident depression prior to treatment; for Intensity of headache, M +/− m: mean of 10 patients having this symptom; for number of patients with abatement or complete cessation of headaches / share of patients with abatement or complete cessation of headaches: of 10 patients
Description: The test was carried out under the direct supervision by two of the inventors, namely E. E. Bukatina and V. Grigorieva, in 14 patients who agreed to take part in the tests, 13 of whom lived in a boarding house for senile persons and one patient lived with their family.
Alzheimer's disease was diagnosed on the basis of criteria ICD-10 NINCDS ADRDA.
Dimebon in the form of tablets (comprising 10 mg of dimebon, 30 mg of lactose, 5 mg of magnesium stearate was prescribed for oral administration in a dose of 0.02 g three to times a day. The patients living in the boarding house received dimebon for 58 days. A patient (observation 14) who was under outpatient observation continued taking the agent for a month after the completion of the tests.
Before the treatment with dimebon, and at 4 and 8 weeks after treatment the patients were examined according to Hazegawa's scale and the inventors' scale (“Social and Clinical Psychiatry”, 1992, No.4, pp.29–37) which includes the following indexes: (1) orientation in locality, time, immediate surroundings and one's own personality; (2) orientation in space; (3) memory for the past; (4) memory for the present; (5) “life in the past”; (6) (a) articulation, (b) difficulty in finding words, and distortion of words; (c) naming of objects; (d) following instructions; (7) concentration (of attention); (8) an affective sphere; (a) high spirits, (b) low spirits; (9) delirium; (10) hearing hallucinations; (11) visual hallucinations; (12) senile or senile-like confusion (when motion anxiety is accompanied by the revival of the past experience); (13) irritability; (14) anxiety; (15) asthenia; (16) headaches; (17) dizziness; (18) tearfulness; (19) spontaneous activity; (20) elementary self-service; and (21 control of sphincters.
According to the Hazegawa's scale, the 0 score indicates the poorest result; on the contrary, according to the inventors' scale, the 0 score indicates the absence of a symptom 4 score indicates the greatest manifestation thereof. […] Before the therapy was started, the patients had been independently examined by two doctors who used the inventors' scale. The examination during the treatment was carried out by the doctors using both the scales. The evaluation according to all the inventors' scale points during all the tests and their variations during the treatment with dimebon are given in the Appendix.
According to the inventors' scale, the degree of the disturbance if the cognitive functions was determined by a sum of evaluations according to the first 5 scale points reflecting the condition of memory, orientation and relation with the reality. The disturbance of speech was dealt with separately and was determined by a sum of evaluations according to items 6b-6d.
Both absolute evaluations of the signs under investigation (the evaluation prior to treatment is a mean evaluation of the two examinations) and variations in them were analysed in the course of therapy. In doing so, only those changes that were beyond the range of evaluations obtained in two pre-treatment examinations were taken into consideration.
The test results reflected the condition of the patients at the time of the examination. Any changes in the metal state observed in the interval between the tests and disappearing by the moment of examination according to the scale were described in the section “Clinical Observations”.
The statistical data processing was carried out by means of Student's t-test and Fisher's “Fi” criterion.

[1] = change at 8 weeks vs K1, K2, per patient, listed as dimebon
[2] = marked (by more than 1 score), 8 weeks
[3] = mean of 14 patients, after 4 weeks
[4] = mean of 14 patients, after 8 weeks
[5] = of 11 patients with depressive symptoms prior to treatment, 4 weeks

**Q.** Which “2. Orientation in space, Changes (8 weeks)” value [1] does the source give for `Cc1ccc2c(c1)c1c(n2CCc2ccc(C)nc2)CCN(C)C1` [No. 10, 2,8-dimethyl-5-[2-(6-methyl-3-pyridyl)ethyl]-2,3,4,5-tetrahydro-1H-pyrido[4,3-b]indole] here?
**A.** The value was “+1 and +0.5”.

**Q.** What about the “4. Memory for the present, Changes (8 weeks)” value [1] of the same molecule?
**A.** Its value is −0.5 (2×) and +1 and +0.5 (4×).

**Q.** What about the “5. Life in the past, Changes (8 weeks)” value [1] of the same molecule?
**A.** Its value is “+0.5 (4×) and +1 (2×)”.

**Q.** And the “6b. Difficulty in finding words, Changes (8 weeks)” value [1]?
**A.** The value was 0 and −0.5.

**Q.** What about the “6c. Naming of objects, Changes (8 weeks)” value [1] of the same molecule?
**A.** Its value is “+0.5 (3×) and +1”.

**Q.** And the “7. Concentration, Changes (8 weeks)” value [1]?
**A.** The value was −0.5 (2×) and +0.5.

**Q.** And the “8b. Lower spirits, Changes (8 weeks)” value [1]?
**A.** Its value is “+1.5 and +1 (3×) and +2 and −1 and +0.5 and −5”.

**Q.** What about the “9. Delirium, Changes (8 weeks)” value [1] of the same molecule?
**A.** Its value is “+1.5 and 0 (2×) and +2”.

**Q.** What about the “13. Irritability, Changes (8 weeks)” value [1] of the same molecule?
**A.** The value was “+1.5 and +1 (2×) and −1.5 and 0”.

**Q.** What about the “14. Anxiety, Changes (8 weeks)” value [1] of the same molecule?
**A.** Its value is “+0.5 and +1 and −0.5”.

**Q.** And the “16. Headache, Changes (8 weeks)” value [1]?
**A.** The value was “+0.5 and +2 and +1.5 and −1”.

**Q.** What about the “17. Dizziness, Changes (8 weeks)” value [1] of the same molecule?
**A.** Its value is 1 and −2 (2×) and +1 (2×) and −0.5.

**Q.** And the “18. Tearfulness, Changes (8 weeks)” value [1]?
**A.** The value was “+1 and +2”.

**Q.** What about the “19. Spontaneous activity, Changes (8 weeks)” value [1] of the same molecule?
**A.** The value was “+1 and 0 (3×) and −1”.

**Q.** And the “20. Elementary self-service, Changes (8 weeks)” value [1]?
**A.** The value was “+1 and −1”.

**Q.** What about the “6d. Performing instructions, Changes (8 weeks)” value [1] of the same molecule?
**A.** Its value is −1.5 and −1 (2×) and +0.5 and +1 (2×) and 0.

**Q.** And the “aggravation or emergence of irritability” value (during treatment)?
**A.** Its value is “Not a single observation”.

**Q.** What about the “first emergence of delirium” value (during treatment) of the same molecule?
**A.** Its value is “not a single case”.

**Q.** What about the “Speech functions (items 6b, c, d): deteriorations, %” value (shortened to “Speech functions … deteriorations, %”) [2] of the same molecule?
**A.** The value was 2.4%.

**Q.** What about the “Speech functions (items 6b, c, d): deteriorations, abs.” value [2] of the same molecule?
**A.** Its value is 1.

**Q.** And the “Degree of irritability, M +/− m” value (after 4 weeks)?
**A.** The value was 0.43 +/− 0.28 scores.

**Q.** What about the “Degree of irritability, M +/− m” value (after 8 weeks) of the same molecule?
**A.** Its value is 0.29 +/− 5.17 scores.

**Q.** And the “Variations of cognitive function, M +/− m” value (mean of 7 patients with unprofound (mild) dementia, 4 weeks, listed as Demibon)?
**A.** Its value is “+0.5 +/− 0.14 score”.

**Q.** And the “Variations of cognitive function, M +/− m” value (mean of 7 patients with unprofound (mild) dementia, 4 weeks, listed as dimebon)?
**A.** Its value is 0.5±0.14 score.

**Q.** And the “Variations of cognitive function, M +/− m” value (mean of 7 patients with unprofound (mild) dementia, 8 weeks)?
**A.** Its value is “+1.79 +/− 0.35 score”.

**Q.** What about the “Values of cognitive functions, M +/− m” value (after 4 weeks) of the same molecule?
**A.** The value was 5.5 +/− 0.79 score.

**Q.** What about the “Values of cognitive functions, M +/− m” value (after 8 weeks) of the same molecule?
**A.** The value was 3.93 +/− 0.5 score.

**Q.** And the “Marked depressive manifestation, M +/− m” value (after 4 weeks)?
**A.** The value was 0.69 +/− 0.23 scores.

**Q.** What about the “Marked depressive manifestation, M +/− m” value (after 8 weeks) of the same molecule?
**A.** The value was 0.69 +/− 0.18 scores.

**Q.** What about the “Intensity of headache, M +/− m” value (after 4 weeks) of the same molecule?
**A.** The value was 0.45 +/− 0.29 scores.

**Q.** What about the “Intensity of headache, M +/− m” value (after 8 weeks) of the same molecule?
**A.** The value was 0.9 +/− 0.31 scores.

**Q.** And the “Variations of cognitive function, M +/− m” value (mean of 14 patients, 4 weeks)?
**A.** The value was −0.43 +/− 0.15 score.

**Q.** What about the “Variations of speech function, M +/− m” value (mean of 14 patients, 4 weeks) of the same molecule?
**A.** The value was −0.18 +/− 0.14.

**Q.** What about the “Variations of cognitive function, M +/− m” value (mean of 14 patients, 8 weeks) of the same molecule?
**A.** Its value is “+1.14 +/− 0.26 score”.

**Q.** And the “Variations of speech function, M +/− m” value (mean of 14 patients, 8 weeks)?
**A.** The value was −0.04 +/− 0.22.

**Q.** And the “Evaluation of speech function, M +/− m” value [3]?
**A.** Its value is 1.61 +/− 0.44 scores.

**Q.** And the “Values of cognitive function (sum of first 5 scale points), M +/− m” value [3]?
**A.** Its value is 8.32 +/− 0.93 score.

**Q.** What about the “Evaluation of speech function, M +/− m” value [4] of the same molecule?
**A.** The value was 1.39 +/− 0.47 scores.

**Q.** What about the “Values of cognitive function (sum of first 5 scale points), M +/− m” value [4] of the same molecule?
**A.** The value was 7.21 +/− 0.82 score.

**Q.** And the “Cognitive functions (first 5 scale points): improvements, %” value (moderate (by 1 score), 4 weeks)?
**A.** The value was 5.7%.

**Q.** What about the “Cognitive functions (first 5 scale points): improvements, abs.” value (moderate (by 1 score), 4 weeks) of the same molecule?
**A.** Its value is 4.

**Q.** What about the “Speech functions … deteriorations, %” value (moderate (by 1 score), 4 weeks) of the same molecule?
**A.** The value was 2.4%.

**Q.** What about the “Speech functions (items 6b, c, d): deteriorations, abs.” value (moderate (by 1 score), 4 weeks) of the same molecule?
**A.** Its value is 1.

**Q.** What about the “Speech functions (items 6b, c, d): improvements, %” value (moderate (by 1 score), 4 weeks) of the same molecule?
**A.** Its value is 7.14%.

**Q.** What about the “Speech functions (items 6b, c, d): improvements, abs.” value (moderate (by 1 score), 4 weeks) of the same molecule?
**A.** Its value is 3.

**Q.** And the “Cognitive functions (first 5 scale points): improvements, %” value (moderate (by 1 score), 8 weeks)?
**A.** Its value is 8.6%.

**Q.** What about the “Cognitive functions (first 5 scale points): improvements, abs.” value (moderate (by 1 score), 8 weeks) of the same molecule?
**A.** Its value is 6.

**Q.** What about the “Speech functions … deteriorations, %” value (moderate (by 1 score), 8 weeks) of the same molecule?
**A.** Its value is 4.8%.

**Q.** And the “Speech functions (items 6b, c, d): deteriorations, abs.” value (moderate (by 1 score), 8 weeks)?
**A.** The value was 2.

**Q.** And the “Speech functions (items 6b, c, d): improvements, %” value (moderate (by 1 score), 8 weeks)?
**A.** The value was 7.1%.

**Q.** And the “Speech functions (items 6b, c, d): improvements, abs.” value (moderate (by 1 score), 8 weeks)?
**A.** The value was 3.

**Q.** What about the “number of patients showing no signs of tearfulness” value (of 5 patients with tearfulness prior to treatment, after four weeks) of the same molecule?
**A.** The value was 4 patients.

**Q.** And the “number of patients with abatement or complete cessation of headaches” value (after 4 weeks)?
**A.** Its value is “Five”.

**Q.** And the “share of patients with abatement or complete cessation of headaches” value (after 4 weeks)?
**A.** The value was 50%.

**Q.** What about the “number of patients with abatement or complete cessation of headaches” value (after 8 weeks) of the same molecule?
**A.** Its value is 3 patients.

**Q.** What about the “share of patients with abatement or complete cessation of headaches” value (after 8 weeks) of the same molecule?
**A.** Its value is 30%.

**Q.** And the “number of patients in whom the depression abated” value [5]?
**A.** The value was 5 patients.

**Q.** What about the “share of patients in whom the depression abated” value [5] of the same molecule?
**A.** The value was 45%.

**Q.** What about the “number of patients with improvement of depression” value (of 11 patients with depressive symptoms prior to treatment, 8 weeks) of the same molecule?
**A.** Its value is 6 patients.
